Measured values from PubChem BioAssay AID2060603 (Molecular Pharmacology Branch, DTP, NCI, 2025).
“And” between values parts separate entries of the source, which are not always exact repeats. Equal entries are not always repeated.

Test system: 422866-222-R5-J1-PDC spheroid viability
Experiment: Anticancer human tumor 422866-222-R5-J1-PDC patient-derived pancreatic adenocarcinoma cell line growth inhibition [CLK]
Conditions: spheroids with HUVEC and MSC; for viability, T/C: stronger effect = lower value; active = viability on the fitted dose curve at most 10% of control; inactive = the rest
In short: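 Multi-cell-type spheroids combined patient-derived tumor cells with HUVEC endothelial cells and human mesenchymal stem cells. Paired agents were dosed in half-log steps down from about clinical Cmax, or from 10 microM where Cmax was unknown.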

[1] = curve of first compound, second compound 0.0316 µM
[2] = curve of first compound, second compound 0.1 µM
[3] = curve of first compound, second compound 0.316 µM
[4] = curve of first compound, second compound 1 µM
[5] = curve of first compound, second compound 3.16 µM
[6] = curve of first compound, second compound 10 µM
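Also: spheroids exposed to agents for seven days before readout.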

C=C(F)C(=O)N1CCN(c2nc(OCC3CCCN3C)nc3c2CCN(c2cccc4cccc(Cl)c24)C3)CC1CC#N (stereo not drawn) + CNC(=O)c1ccc(Nc2nc(OC3CCCC3)c3c(-c4ccc5nc(C)oc5c4)c[nH]c3n2)c(OC)c1
active: viability, T/C (second compound 0.0316 µM, first compound 10 µM) 0.15% | viability, T/C (second compound 0.1 µM, first compound 10 µM) 0.14% | viability, T/C (second compound 0.316 µM, first compound 10 µM) 0.14% | viability, T/C (second compound 1 µM, first compound 10 µM) 4.65% | viability, T/C (second compound 3.16 µM, first compound 10 µM) 0.15% | viability, T/C (second compound 10 µM, first compound 10 µM) 0.17%
< 31.6 nM: IC50 [1] | IC50 [2] | IC50 [3] | IC50 [4] | IC50 [5] | IC50 [6]
inactive: viability, T/C (second compound 0.0316 µM, first compound 0.0316 µM) 39.9% | viability, T/C (second compound 0.0316 µM, first compound 0.1 µM) 29.7% | viability, T/C (second compound 0.0316 µM, first compound 0.316 µM) 23.2% | viability, T/C (second compound 0.0316 µM, first compound 1 µM) 25.3% | viability, T/C (second compound 0.0316 µM, first compound 3.16 µM) 15.7% | viability, T/C (second compound 0.1 µM, first compound 0.0316 µM) 38.7% | viability, T/C (second compound 0.1 µM, first compound 0.1 µM) 23.9% | viability, T/C (second compound 0.1 µM, first compound 0.316 µM) 23.3% | viability, T/C (second compound 0.1 µM, first compound 1 µM) 20.6% | viability, T/C (second compound 0.1 µM, first compound 3.16 µM) 15% | viability, T/C (second compound 0.316 µM, first compound 0.0316 µM) 29.8% | viability, T/C (second compound 0.316 µM, first compound 0.1 µM) 23.6% | viability, T/C (second compound 0.316 µM, first compound 0.316 µM) 25.1% | viability, T/C (second compound 0.316 µM, first compound 1 µM) 23.1% | viability, T/C (second compound 0.316 µM, first compound 3.16 µM) 14.8% | viability, T/C (second compound 1 µM, first compound 0.0316 µM) 30.3% | viability, T/C (second compound 1 µM, first compound 0.1 µM) 24.8% | viability, T/C (second compound 1 µM, first compound 0.316 µM) 22.4% | viability, T/C (second compound 1 µM, first compound 1 µM) 23.3% | viability, T/C (second compound 1 µM, first compound 3.16 µM) 18.2% | viability, T/C (second compound 3.16 µM, first compound 0.0316 µM) 28.4% | viability, T/C (second compound 3.16 µM, first compound 0.1 µM) 29.2% | viability, T/C (second compound 3.16 µM, first compound 0.316 µM) 24.5% | viability, T/C (second compound 3.16 µM, first compound 1 µM) 25% | viability, T/C (second compound 3.16 µM, first compound 3.16 µM) 20.4% | viability, T/C (second compound 10 µM, first compound 0.0316 µM) 30% | viability, T/C (second compound 10 µM, first compound 0.1 µM) 28.4% | viability, T/C (second compound 10 µM, first compound 0.316 µM) 28.1% | viability, T/C (second compound 10 µM, first compound 1 µM) 24.6% | viability, T/C (second compound 10 µM, first compound 3.16 µM) 18.5%

CC(C)CC(NC(=O)C(Cc1ccccc1)NC(=O)c1cnccn1)B(O)O (stereo not drawn) + CN1CCN(c2cc(C(=O)Nc3cc4cc(-c5cnn(C)c5)ccc4cn3)ccn2)CC1
4.39 nM: IC50 [3]
inactive: viability, T/C (second compound 0.0316 µM, first compound 0.000949 µM) 111% | viability, T/C (second compound 0.0316 µM, first compound 0.003 µM) 76.2% | viability, T/C (second compound 0.1 µM, first compound 0.000949 µM) 115% | viability, T/C (second compound 0.1 µM, first compound 0.003 µM) 89.7% | viability, T/C (second compound 0.316 µM, first compound 0.000949 µM) 112% | viability, T/C (second compound 0.316 µM, first compound 0.003 µM) 72.7% | viability, T/C (second compound 1 µM, first compound 0.000949 µM) 25.4% | viability, T/C (second compound 3.16 µM, first compound 0.000949 µM) 9.95%
active: viability, T/C (second compound 0.0316 µM, first compound 0.00949 µM) 8.95% | viability, T/C (second compound 0.0316 µM, first compound 0.03 µM) 1.59% | viability, T/C (second compound 0.0316 µM, first compound 0.0949 µM) 0.94% | viability, T/C (second compound 0.0316 µM, first compound 0.3 µM) 0.87% | viability, T/C (second compound 0.1 µM, first compound 0.00949 µM) 8.61% | viability, T/C (second compound 0.1 µM, first compound 0.03 µM) 1.61% | viability, T/C (second compound 0.1 µM, first compound 0.0949 µM) 0.69% | viability, T/C (second compound 0.1 µM, first compound 0.3 µM) 3% | viability, T/C (second compound 0.316 µM, first compound 0.00949 µM) 4.02% | viability, T/C (second compound 0.316 µM, first compound 0.03 µM) 0.92% | viability, T/C (second compound 0.316 µM, first compound 0.0949 µM) 0.7% | viability, T/C (second compound 0.316 µM, first compound 0.3 µM) 0.68% | viability, T/C (second compound 1 µM, first compound 0.003 µM) 4.84% | viability, T/C (second compound 1 µM, first compound 0.00949 µM) 1.06% | viability, T/C (second compound 1 µM, first compound 0.03 µM) 0.61% | viability, T/C (second compound 1 µM, first compound 0.0949 µM) 0.91% | viability, T/C (second compound 1 µM, first compound 0.3 µM) 2.12% | viability, T/C (second compound 3.16 µM, first compound 0.003 µM) 4.26% | viability, T/C (second compound 3.16 µM, first compound 0.00949 µM) 1.32% | viability, T/C (second compound 3.16 µM, first compound 0.03 µM) 0.91% | viability, T/C (second compound 3.16 µM, first compound 0.0949 µM) 1.14% | viability, T/C (second compound 3.16 µM, first compound 0.3 µM) 1.2% | viability, T/C (second compound 10 µM, first compound 0.000949 µM) 1.77% | viability, T/C (second compound 10 µM, first compound 0.003 µM) 0.99% | viability, T/C (second compound 10 µM, first compound 0.00949 µM) 1.54% | viability, T/C (second compound 10 µM, first compound 0.03 µM) 0.44% | viability, T/C (second compound 10 µM, first compound 0.0949 µM) 1.53% | viability, T/C (second compound 10 µM, first compound 0.3 µM) 0.46%
5.27 nM: IC50 [2]
4.7 nM: IC50 [1]
< 0.949 nM: IC50 [4] | IC50 [5] | IC50 [6]

CCc1c2c(nc3ccc(O)cc13)-c1cc3c(c(=O)n1C2)COC(=O)[C@]3(O)CC
< 3.16 nM: IC50 (curve of compound)
inactive: viability, T/C (compound 0.00316 µM) 45.8% and 52.3% | viability, T/C (compound 0.01 µM) 37% and 43.1% | viability, T/C (compound 0.0316 µM) 44% and 44.3% | viability, T/C (compound 0.1 µM) 47.2% and 45.5% | viability, T/C (compound 0.316 µM) 41.7% and 43.5% | viability, T/C (compound 1 µM) 19.9% and 18.4%

C=CC(=O)N1CCN(c2nc(=O)n(-c3c(C)ccnc3C(C)C)c3nc(-c4c(O)cccc4F)c(F)cc23)C(C)C1 (stereo not drawn)
inactive: viability, T/C (compound 0.0316 µM) 33% and 35.7% | viability, T/C (compound 0.1 µM) 27% and 28.4% | viability, T/C (compound 0.316 µM) 24.9% and 25.6% | viability, T/C (compound 1 µM) 27.6% and 25.6% | viability, T/C (compound 3.16 µM) 32.8% and 25.4% | viability, T/C (compound 10 µM) 25.2% and 30%
< 31.6 nM: IC50 (curve of compound)
